Measurements reported in patent publication US20230248660A1 (Intelgenx Corp., priority 2016, published 2023).

Experiments:
[1] = tested on: Porcine buccal mucosa; assay: Loxapine diffusion through Porcine buccal mucosa (Franz cell); settings: penetration enhancer in loxapine oral film, permeation through the mucosa
Protocol: FIG. 1 graphically depicts 1 oxapine film diffusion through Porcine buccal mucosa (48-hrs-old unfrozen fresh mucosa) (Franz cell 1.76 cm2; 37° C.); saliva pH 6.8.
FIG. 2 graphically depicts 1 oxapine film diffusion through Porcine buccal mucosa (26-hrs-old unfrozen fresh mucosa) (Franz cell 1.76 cm2; 37° C.); saliva pH 6.8.
FIG. 3 graphically depicts 1 oxapine Solutions-diffusion through Porcine buccal mucosa (fresh mucosa kept at 4C for 48 hours) (Franz cell 1.76 cm2; 37° C.); saliva pH 6.8.
These penetration enhancers include sulphoxides (dimethylsulphoxide, decylmethyl sulfoxide), azones (laurocapram), pyrrolidones (2pyrrolidone, 2P), alcohols/alkanols (ethanol or decanol), glycols (propylene glycol), surfactants (anionic, sodium lauryl sulfate, sodium decyl sulfate), (Nonionic, Tween, PLE), (Cationic, chitosan, cetylpyridinium chloride), terpenes (1,8-cineole, menthol, and menthone, D-limonene), fatty acids (oleic acid, sodium caprate), and bile salts (sodium deoxycholate, sodium deoxyglycocholate).

[2] = at or near neutral pH; cited from earlier work

## C=C(C)[C@@H]1CC=C(C)CC1 [(S)-(−)-Limonene]
[1]
  Effect on loxapine absorption/permeation: positif effect (+)

## CCCCCCCCCCCCCCCC[n+]1ccccc1 [Cetylpyridinium chloride]
[1]
  Effect on loxapine absorption/permeation: no effect

## O=C(O)CN(CCN(CC(=O)O)CC(=O)O)CC(=O)O.[Ca].[Na].[Na] [Ethylenediaminetetraacetic acid calcium disodium]
[1]
  Effect on loxapine absorption/permeation: no effect

## CCCCCCCCCCCCOS(=O)(=O)[O-].[Na+] [Sodium lauryl sulphate (SLS), Sodium lauryl sulphate]
[1]; listed as SLS, sulphate
  Effect on loxapine absorption/permeation: reduce absorption/permeation
[1]; sulphate
  Effect on loxapine absorption/permeation: negative effect(−)

## CN1CCN(C2=Nc3ccccc3Oc3ccc(Cl)cc32)CC1 [loxapine, 2-chloro-11-(4-methylpiperazin-1-yl) dibenzo[b,f] [1,4] loxazepine]
[2]
  solubility of loxapine: especially low

## Sodium deoxycholate
[1]
  Effect on loxapine absorption/permeation: positif effect (+)
